Results taken from patent US20070020241A1, “Use of photosensitisation” (priority 2003, published 2007).

Assays:
S. aureus 8325-4 [1] = assay: Targeted photodynamic therapy using Φ11-SnCe6 conjugates and a laser light source; assay type: cell-based, Staphylococcus aureus; conditions: 1.15 μg ml^−1 SnCe6, 633 nm 35 mW HeNe laser 5 minutes (21 J/cm^2)
Method: Bacteriophage Φ11 was propagated and precipitated as described above for phage 75, except that S aureus strain 8325-4 was used as the propagating strain. Tin chlorin e6 (SnCe6) was conjugated onto Staphylococcus phage Φ11 using the method described above, achieving bound concentrations of 2.3 and 3.5 μg ml^−1 SnCe6 with the phage Φ11 at 4.7×10^7 pfu.ml^−1. […] The final concentration of conjugated SnCe6 was 1.15 μg ml^−1.
The light source was a 35 mW Helium/Neon laser and irradiation (when used) was for 5 minutes in the case of FIGS. 3 and 4, and for 10 minutes in the case of FIG. 5.

EMRSA-16 = assay: Lethal photosensitisation using phage 75-SnCe6 conjugate and a white light source; assay type: cell-based, Staphylococcus aureus; conditions: for % kill (L+S+): vs PBS in the dark
Text: (§1) Bacterial strains: S. aureus 8325-4 • EMRSA-16
(§2) Light source: KL200 (Schott). This is a 20-watt halogen cold light source. The light guide attached to it is a flexible optic fibre bundle which is directed onto a 96 well plate at a distance of 5 cm. A square of 4-wells is placed at the centre of the light source.
(§3) Approx light intensity=44,000 lux or 470 μW/nm
(§4) Phage 75 was conjugated to SnCe6 as described above. Phages were used at a concentration of 1×10^7 pfu/ml.
(§5) Overnight cultures of S. aureus grown in nutrient broth were centrifuged, resuspended in PBS and adjusted to an OD of 0.05 at 600 nm (approximately 4×10^7 cfu/ml)
(§6) 50 μl of bacterial culture was aliquoted into a 96-well plate and 50 μl of the one of the following solutions added to the wells: • 1) 3.5 μg/ml SnCe6-phage 75 (final concentration 1.75 μg/ml, 1×10^6 pfu/well) in PBS • 2) 1.75 μg/ml SnCe6-phage 75 (final concentration 0.875 μg/ml, 5×10^5 pfu/well) in PBS • 3) 3.5 μg/ml SnCe6 in PBS (final concentration 1.75 μg/ml) • 4) 1.75 μg/ml SnCe6 in PBS (final concentration 0.875 μg/ml) • 5) PBS • 6) Phage 75 at a concentration of 5×10^5 or 1×10^6 pfu/well in PBS
(§7) Wells were either exposed to white light (4 wells at a time) or wrapped in tin foil and stored in the dark.
(§8) After various exposure times an aliquot was taken from each well, serially diluted and spread onto Columbia blood agar. Agar plates were incubated overnight at 37° C. and counted the next day.

S. aureus 8325-4 [2] = assay: as above; assay type: cell-based, Staphylococcus aureus; conditions: for % kill (L+S+): vs PBS in the dark
Text: as §1, §2, §3, §4, §5, §6, §7, §8

[3] = tested on: Streptococcus pyogenes ATCC 12202; assay: Lethal photosensitization of Streptococcus pyogenes using SnCe6 and laser light; assay type: cell-based
Method: (§9) streptococcus pyogenes ATCC 12202 was grown in Brain Heart Infusion broth at 37° C. in an atmosphere consisting of 5% CO2 in air. The cells were harvested by centrifugation and re-suspended in phosphate buffered saline (PBS) and diluted to 1×10^7 cfu/ml in PBS. 20 μl samples of the diluted bacterial suspension were then placed into wells of a 96-well plate, together with a magnetic stirrer bar. 100 μl of different concentrations (1-50 μg/ml) of the SnCe6 in PBS was added to the bacterial suspensions. Controls were performed with 100 μl PBS added to the bacteria and either irradiated (L+S−) or kept in the dark (L−S−). The experiment was carried out in duplicate.
(§10) After incubation, the contents of some of the wells were exposed to light from the 35 mW Helium/Neon laser emitting light with a wavelength of 633nm for 10 min, with stirring, corresponding to an energy density of 42 J/cm^2. Aluminium foil was placed in the surrounding wells to allow any escaping laser light to be reflected back into the target well. Control wells were not irradiated with laser light.
After exposure to the laser light, 100 μl samples were immediately taken from each well and serially diluted, from 10^−1 to 10^−5, in 1 ml TSY in 1.5 ml Eppendorf tubes. Duplicate 50 μl aliquots of each dilution were then spread out on half a CBA plate. The plates were placed in a 37° C. incubator for up to 48 h and the resulting colonies were counted to determine the number of surviving organisms.

[4] = tested on: Propionibacterium acnes ATCC 29399; assay: Lethal photosensitization of Propionibacterium acnes using SnCe6 and laser light; assay type: cell-based
Method: as §9, with “Propionibacterium acnes ATCC 29399” for “streptococcus pyogenes ATCC 12202”, “acnes ATCC 29399 was grown” for “pyogenes ATCC 12202 was grown”, “grown in pre-reduced Brain Heart” for “grown in Brain Heart”, “in an anaerobic atmosphere. The cells” for “in an atmosphere consisting of 5% CO2 in air. The cells”, “diluted to 1×10^8 cfu/ml in” for “diluted to 1×10^7 cfu/ml in”
as §10, with “633 nm” for “633nm”
After exposure to the laser light, 100 μl samples were immediately taken from each well and serially diluted, from 10^−1 to 10^−5, in 1 ml of pre-reduced TSY in 1.5 ml Eppendorf tubes. Duplicate 50 μl aliquots of each dilution were then spread out on half a CBA plate. The plates were incubated anaerobically at 37° C. and the resulting colonies were counted to determine the number of surviving organisms.

16 strains of EMRSA = conditions: red light, higher light doses; cited from earlier work
[5] = white light 10 min, final photosensitiser 0.875 μg/ml
[6] = white light 10 min, final photosensitiser 1.75 μg/ml
[7] = white light 20 min, final photosensitiser 1.75 μg/ml
[8] = without exposure to white light
[9] = 633 nm laser 10 min, 42 J/cm^2, 1-50 μg/ml
[10] = dark, increasing concentrations (1-50 μg/ml)
[11] = photosensitiser 50 μg/ml, 633 nm laser 10 min, 42 J/cm^2

Row | Molecule | % kill (compared to control counts in phosphate buffered saline) (S. aureus 8325-4 [1]) | % kill (L+S+) (EMRSA-16; [5]) [%] | % kill (L+S+) (EMRSA-16; [6]) [%] | % kill (L+S+) (EMRSA-16; [7]) [%] | bacterial counts of controls vs unirradiated suspension without photosensitiser (EMRSA-16; [8]) | % kill (L+S+) (S. aureus 8325-4 [2]; [5]) [%] | % kill (L+S+) (S. aureus 8325-4 [2]; [6]) [%] | % kill (L+S+) (S. aureus 8325-4 [2]; [7]) [%] | bacterial counts of controls vs unirradiated suspension without photosensitiser (S. aureus 8325-4 [2]; [8]) | effect on the viable count, irradiation [3, 9] | effect on the viable count, incubation in the dark [3, 10] | % kill of the organism [3, 11] [%] | effect on the viable count, irradiation [4, 9] | effect on the viable count, incubation in the dark [4, 10] | % kill of the organism [4, 11] [%] | % killing (16 strains of EMRSA) [%]
1 | C=CC1=C(C)C2=CC3=NC(=C(CC(=O)[O-])C4=NC(=C(C)C4=C([O-])[O-])C=c4[n-]c(c(C)c4CC)=CC1=N2)C(CCC(=O)[O-])C3C.[H+].[Sn+4] (stereo not shown) [SnCe6, tin (IV) chlorin e6] | did not achieve any kill | 0 | 0 | 99.78 | not significantly different | 45.3 | 97.8 | 97.9 | not significantly different | concentration-dependent decrease in the viable count | no significant effect | 99.9997 | concentration-dependent decrease in the viable count | no significant effect | 100 | –
2 | aluminium disulphonated phthalocyanine [AlPcS2] | – | – | – | – | – | – | – | – | – | – | – | – | – | – | – | 100
